# Assay results: patent publication US8846704B2, “Thiopyrimidine-based compounds and uses thereof” (YM Biosciences Austraila Pty Ltd, priority 2007, dated 2014)
# What was measured:
# [1] = target: T1, human JAK1 (Homo sapiens, UniProt P23458); test: Alphascreen tyrosine kinase enzyme assay, JAK1 kinase domain; assay type: biochemical; conditions: read-out: JAK1 IC50_nM
# T1 construct: The kinase domain of human JAK1 was amplified; GST (N); made in house; host or cells: Sf9 insect cells (baculovirus)
# T1 sequence (P23458 875-1153 limits assumed): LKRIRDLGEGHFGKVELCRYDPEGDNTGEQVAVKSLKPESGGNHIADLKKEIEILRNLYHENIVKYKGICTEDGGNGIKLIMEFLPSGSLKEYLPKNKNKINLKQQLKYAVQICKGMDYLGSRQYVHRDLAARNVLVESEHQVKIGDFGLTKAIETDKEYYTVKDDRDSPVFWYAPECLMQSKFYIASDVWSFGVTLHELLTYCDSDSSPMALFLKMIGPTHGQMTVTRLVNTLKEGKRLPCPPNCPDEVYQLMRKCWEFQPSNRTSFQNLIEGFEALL
# [2] = target: T2, human JAK3 (Homo sapiens, UniProt P52333); test: Alphascreen tyrosine kinase enzyme assay, JAK3 kinase domain; assay type: biochemical; conditions: read-out: JAK3 IC50_nM
# T2 construct: The kinase domain of human JAK3 was amplified; GST (N); made in house; host or cells: Sf9 insect cells (baculovirus)
# T2 sequence (P52333 822-1111 limits assumed): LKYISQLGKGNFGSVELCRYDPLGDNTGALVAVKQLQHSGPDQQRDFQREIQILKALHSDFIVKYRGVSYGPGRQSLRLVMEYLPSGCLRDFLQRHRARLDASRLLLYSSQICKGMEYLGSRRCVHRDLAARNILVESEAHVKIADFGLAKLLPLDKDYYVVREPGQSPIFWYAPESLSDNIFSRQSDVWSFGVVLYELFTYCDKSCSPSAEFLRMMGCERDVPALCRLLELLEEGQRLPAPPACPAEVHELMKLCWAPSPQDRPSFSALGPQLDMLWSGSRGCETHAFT
# Outline: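 GST-affinity-purified human JAK3 kinase domain (baculovirus/Sf9) was pre-incubated 20 min with compound ([…]) in HEPES pH 7.5 buffer with MgCl2, vanadate and Tween 20. Biotinylated peptide substrate ([…]) and ATP were then added; phosphotyrosine was detected by AlphaScreen PY100 acceptor and streptavidin donor beads after 2–3 h.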
# [3] = target: T3, human JAK2 (Homo sapiens, UniProt O60674); test: Alphascreen tyrosine kinase enzyme assay, JAK2 kinase domain; assay type: biochemical; conditions: read-out: JAK2 IC50_nM
# T3 construct: The kinase domain of human JAK2 was amplified; GST (N); made in house; host or cells: Sf9 insect cells (baculovirus)
# T3 sequence (O60674 849-1124 limits assumed): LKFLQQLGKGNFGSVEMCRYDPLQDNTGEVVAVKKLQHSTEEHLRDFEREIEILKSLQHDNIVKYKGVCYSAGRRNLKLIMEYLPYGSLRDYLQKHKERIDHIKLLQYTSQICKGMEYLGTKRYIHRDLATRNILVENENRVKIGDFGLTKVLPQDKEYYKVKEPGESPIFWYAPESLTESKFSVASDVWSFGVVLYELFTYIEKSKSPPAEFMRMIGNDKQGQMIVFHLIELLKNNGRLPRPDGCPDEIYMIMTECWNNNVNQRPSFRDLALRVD
# Outline: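 JAK2 kinase domain expressed in baculovirus/Sf9 and glutathione-affinity purified. Compounds (final […]) pre-incubated 20 min with enzyme in 10 mM HEPES pH 7.5, MgCl2, NaCl, vanadate, 0.1% Tween 20.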
# [4] = target: T4, BaF3 TELJAK2 cells (BafT_J2) (Homo sapiens, UniProt O60674); test: Cellular screening, BaF3 TEL:JAK2 cells, Alamar Blue; assay type: cell-based; conditions: 40 hr, read-out: BafT_J2 IC50_nM
# T4 construct: fused on or other part: TEL (ETV6) N-terminal part, coding nucleotides 1-487, serves as the oligomerising partner; It is fused through a Sal I site to the JAK2 kinase domain and expressed from pTRE2 in BaF3 cells bearing pTET-off; P41212 (Transcription factor ETV6)
# T4 sequence (O60674 whole entry, change not shown, the tested form may be a part): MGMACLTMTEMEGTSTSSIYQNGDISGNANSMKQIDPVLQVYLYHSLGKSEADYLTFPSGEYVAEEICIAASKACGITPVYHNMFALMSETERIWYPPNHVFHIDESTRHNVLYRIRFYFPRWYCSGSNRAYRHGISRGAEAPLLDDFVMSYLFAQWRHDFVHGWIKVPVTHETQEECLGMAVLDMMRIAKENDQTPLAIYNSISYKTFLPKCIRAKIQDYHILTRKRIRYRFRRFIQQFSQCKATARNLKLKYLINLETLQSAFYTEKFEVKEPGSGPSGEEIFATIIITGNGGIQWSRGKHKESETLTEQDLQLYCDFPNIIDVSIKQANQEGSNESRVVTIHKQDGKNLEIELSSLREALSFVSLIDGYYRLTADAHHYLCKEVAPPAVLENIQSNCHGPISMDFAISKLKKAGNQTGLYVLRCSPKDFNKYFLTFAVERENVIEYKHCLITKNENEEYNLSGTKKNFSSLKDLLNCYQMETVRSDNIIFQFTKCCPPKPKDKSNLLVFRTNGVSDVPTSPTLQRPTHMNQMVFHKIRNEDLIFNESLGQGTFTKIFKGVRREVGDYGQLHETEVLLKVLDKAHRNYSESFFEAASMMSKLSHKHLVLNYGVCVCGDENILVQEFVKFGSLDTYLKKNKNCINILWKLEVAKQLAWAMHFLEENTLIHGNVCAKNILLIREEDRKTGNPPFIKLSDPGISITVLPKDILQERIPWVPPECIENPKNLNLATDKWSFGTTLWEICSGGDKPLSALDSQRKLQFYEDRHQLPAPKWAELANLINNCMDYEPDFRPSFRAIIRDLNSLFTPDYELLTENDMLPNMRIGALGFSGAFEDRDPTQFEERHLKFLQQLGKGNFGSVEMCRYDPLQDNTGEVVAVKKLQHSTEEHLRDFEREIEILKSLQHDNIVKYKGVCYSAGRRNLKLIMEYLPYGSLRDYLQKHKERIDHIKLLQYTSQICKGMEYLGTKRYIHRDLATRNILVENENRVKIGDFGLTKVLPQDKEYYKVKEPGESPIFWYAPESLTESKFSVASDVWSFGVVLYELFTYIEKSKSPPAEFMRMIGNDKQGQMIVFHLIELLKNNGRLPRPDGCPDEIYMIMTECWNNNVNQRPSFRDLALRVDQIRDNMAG
# Outline: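 Tet-off BaF3 cells carrying a TEL (nt 1-487)–JAK2 kinase-domain fusion, grown factor-independently in DMEM with 10% Tet-approved FBS without WEHI 3B medium. Compounds were diluted to 20 μM in screening plates, and cells (50,000–200,000 cell/mL at 1.1×) were incubated 40 hr at 37 °C, 5% CO2. Alamar Blue was then added for 4-6 hours; read at 544 nm.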
Structure (SMILES),IC50 [1] [nM],IC50 [2] [nM],IC50 [3] [nM],GI50 [4] [nM]
"C=CC(=O)Nc1ccc(Sc2ccnc(Nc3ccc(S(N)(=O)=O)c(OC)c3)n2)cc1 [Compound 374, N-(4-(2-(3-methoxy-4-sulfamoylphenylao)pyrimidin-4-ylthio)phenyl)acrylamide]",> 1000,< 100,> 1000,< 5000
"C=CC(=O)Nc1ccc(Sc2nc(Nc3ccc(C4CCN(C)CC4)cc3)ncc2C)cc1 [Compound 246, N-(4-(5-methyl-2-(4-(1-methylpiperidin-4-yl)phenylao)pyrimidin-4-ylthio)phenyl)acrylamide]",> 1000,< 100,> 1000,< 5000
"C=CC(=O)Nc1ccc(Sc2nc(Nc3ccc(NS(C)(=O)=O)c(OC)c3)ncc2C)cc1 [Compound 296, N-(4-(2-(3-methoxy-4-(methylsulfonamido)phenylao)-5-methylpyrimidin-4-ylthio)phenyl)acrylamide]",> 1000,< 100,> 1000,< 5000
"N#Cc1nnnn1Cc1ccc(Sc2ccnc(Nc3ccc(N4CCOCC4)cc3)n2)cc1 [Compound 155, 1-(4-(2-(4-morpholinophenylao)pyrimidin-4-ylthio)benzyl)-1H-tetrazole-5-carbonitrile]",> 1000,< 100,> 1000,< 20000
"C=CC(=O)Nc1ccc(Sc2nc(Nc3ccc(N4CCOCC4)cc3)ncc2F)cc1 [Compound 268, N-(4-(5-fluoro-2-(4-morpholinophenylao)pyrimidin-4-ylthio)phenyl)acrylamide]",> 1000,< 100,> 1000,> 20000
"c1cc(Sc2ccc(Cn3cnnn3)cc2)nc(Nc2ccc(N3CCOCC3)cc2)n1 [Compound 109, 4-(4-((1H-tetrazol-1-yl)methyl)phenylthio)-N-(4-morpholinophenyl)pyrimidin-2-ae]",> 1000,< 500,< 1000,< 20000
"Cc1cnc(Nc2ccc(N3CCOCC3)cc2)nc1Sc1c(C)cc(N)cc1C [Compound 165, 4-(4-ao-2,6-dimethylphenylthio)-5-methyl-N-(4-morpholinophenyl)pyrimidin-2-ae]",> 1000,< 500,> 1000,> 20000
"C=CC(=O)Nc1ccc(Sc2ccnc(Nc3cc(C)cc(C)c3)n2)cc1 [Compound 82, N-(4-(2-(3,5-dimethylphenylao)pyrimidin-4-ylthio)phenyl)acrylamide]",> 1000,< 100,> 1000,< 5000
"C=CC(=O)Nc1cccc(Nc2nccc(Sc3ccc(OC)cc3)n2)c1 [Compound 42, N-(3-(4-(4-methoxyphenylthio)pyrimidin-2-ylao)phenyl)acrylamide]",> 1000,< 100,> 1000,< 20000
"C=CC(=O)Nc1ccc(Sc2nc(Nc3ccc(N4CCC(O)C4)cc3)ncc2C)cc1 (stereo not drawn) [Compound 295, N-(4-(2-(4-(3-hydroxypyrrolidin-1-yl)phenylao)-5-methylpyrimidin-4-ylthio)phenyl)acrylamide]",> 1000,< 100,> 1000,> 20000
"N#Cc1ncn(Cc2ccc(Sc3ccnc(Nc4ccc(N5CCOCC5)cc4)n3)cc2)c1C#N [Compound 201, 1-(4-(2-(4-morpholinophenylao)pyrimidin-4-ylthio)benzyl)-1H-imidazole-4,5-dicarbonitrile]",> 1000,< 100,> 1000,< 5000
"Cc1cnc(Nc2ccc(O)cc2)nc1Sc1ccc(NC(=O)CCl)cc1 [Compound 193, 2-chloro-N-(4-(2-(4-hydroxyphenylao)-5-methylpyrimidin-4-ylthio)phenyl)acetamide]",> 1000,< 100,> 1000,< 5000
"C=CC(=O)Nc1ccc(Sc2nc(Nc3cccc(NS(C)(=O)=O)c3)ncc2C)cc1 [Compound 288, N-(4-(5-methyl-2-(3-(methylsulfonamido)phenylao)pyrimidin-4-ylthio)phenyl)acrylamide]",> 1000,< 100,> 1000,< 20000
"C=CC(=O)Nc1ccc(Sc2ccnc(Nc3ccc(N4CCOCC4)cc3)n2)cc1 [Compound 25, N-(4-(2-(4-morpholinophenylamino)pyrimidin-4-ylthio)phenyl)acrylamide]",> 1000,< 100,> 1000,> 20000
"Cc1cnc(Nc2cccc(O)c2)nc1Sc1ccc(NC(=O)CCl)cc1 [Compound 194, 2-chloro-N-(4-(2-(3-hydroxyphenylao)-5-methylpyrimidin-4-ylthio)phenyl)acetamide]",> 1000,< 100,> 1000,< 5000
"Cc1cnc(Nc2ccc(N3CCOCC3)cc2)nc1Sc1ccc(NC(=O)/C=C\C(=O)O)cc1 [Compound 380, (Z)-4-(4-(5-methyl-2-(4-morpholinophenylao)pyrimidin-4-ylthio)phenylao)-4-oxobut-2-enoic acid]",> 1000,< 100,> 1000,> 20000
"C=CC(=O)Nc1ccc(Sc2nc(Nc3ccc(OC)c(OC)c3)ncc2C)cc1 [Compound 241, N-(4-(2-(3,4-dimethoxyphenylao)-5-methylpyrimidin-4-ylthio)phenyl)acrylamide]",> 1000,< 100,> 1000,< 5000
"C=CC(=O)Nc1ccc(Sc2nc(Nc3ccc(OCCN4CCOCC4)cc3)ncc2C)cc1 [Compound 290, N-(4-(5-methyl-2-(4-(2-morpholinoethoxy)phenylao)pyrimidin-4-ylthio)phenyl)acrylamide]",> 1000,< 100,> 1000,< 20000
